Where two headings read alike, the source gives them in different places.
Legend:
[1] = tested on: LPS induced TNF-α in plasma; assay: Inhibition of LPS induced TNFa production in rats in vivo (experimental setup 2); parameters: species or system rat; details: for dose at which the maximal inhibitory effect on TNF-a is achieved: doses 50, 200, 1000 μg/kg tested
Procedure: Inhibition of LPS Induced TNFa Production in Rats In Vivo
Experimental animals. Female Wistar rats (220-240 g) are obtained from the Charles River, Sulzfeld, Germany, and housed in a temperature- (22-24° C.) and moisture-controlled (40-70%) room with a 12 h light-dark cycle (light on from 6:00 A.M. to 6:00 P.M.). The rats are maintained on a standard rodent diet with 140 mmol/kg of sodium, 275 mmol/kg potassium and 23% protein (Altromin International, Lage, Germany) and have free access to water.
Animal preparation. […] After instrumentation, the animals are housed individually for 7-10 days until the day of the experiment.
Experimental protocol. Prior to the experiments all rats are adapted to the restraining cage used for the experiments by training them for two periods of two hours each. On the day of the experiment, the animal is transferred to a restraining cage, and an intravenous infusion of vehicle solution containing 150 mM glucose is started. The infusion rate is 0.5 ml/h throughout the experiment. After a short adaptation period, infusion of lipopolysaccharide (LPS) is started. LPS (E coli serotype 0127 B8, L 3129, Sigma, St. Louis, USA) is given at a dose of 4 mg/kg body weight delivered as an i.v. infusion over 1 hour. Arterial blood samples of 0.3 ml are taken 60, 90, and 120 minutes after start of the LPS infusion and replaced immediately with heparinized blood from a normal donor rat.
In addition to LPS infusion all rats are treated with a bolus injection of: • Vehicle (0.5 mL isotonic saline); • a-MSH in one of the following doses: 50 μg/kg bw; 200 μg/kg/bw or 1000 μg/kg bw; • Test compound in one of the following doses: 50 μg/kg bw; 200 μg/kg/bw or 1000 μg/kg bw.
Measurement of TNF-α in plasma: The blood samples are collected in a prechilled test tube with 0.5 mM EDTA, pH 7.4, and 20×10^6 IU/ml aprotinin. After centrifugation at 4° C., plasma samples are transferred to pre-chilled test tubes and stored at −20° C. for later measurements of TNF-α. TNF-α in plasma is determined by an ELISA (Biotrak, Amersham, UK).
Statistical analyses. Results are presented as means±SE. A two-way ANOVA for repeated measures is used to test for differences between groups. In case of P<0.05, the differences between corresponding periods are evaluated by unpaired t-tests with Bonferroni's correction of the level of significance.

[2] = tested on: LPS induced TNF-α production by human leucocytes (PBMC); assay: Inhibition of LPS induced TNF-a production by human leucocytes in vitro (experimental setup 1); format: cell-based; details: human leucocyte suspension
Procedure: Inhibition of LPS Induced TNF-a Production by Human Leucocytes In Vitro
20 mL human blood is collected in vacutainer tubes containing EDTA. PBMC is isolated using Ficoll-Paque Plus as in Amersham's Instruction 71-7167-00 AD, 2002-06. PBMC is counted using Tryphan Blue Solution (Sigma) and incubated in RPMI 1640, (Applichem), supplemented with 10 mM Hepes (Sigma), 2 mM L-glutamin (Sigma), 0.1% BSA (Sigma) and 50U/50 μg/mL Penicillin/Streptomycin (Sigma) in the concentration 5×10^5 cells/mL. The isolated PBMC is incubated in a humidified 5% CO2, 95% air atmosphere, at 37° C., in 24 well flat-bottomed plates (Corning Incorporated) with medium, 10 ng LPS/mL (Sigma), and test compound. After 18 hours the samples are centrifuged, and TNF-α in the supernatants is measured using Tumour Necrosis Factor Alpha [(h)TNF-α] from Human Biotrak ELISA System (Amersham).
The samples are incubated as following per donor: • PBMC's in RPMI (Time Control) • PBMC's with 10 ng LPS/mL (Vehicle) • PBMC's, 10 ng LPS/mL, 10^−17M a-MSH or a-MSH analogue • PBMC's, 10 ng LPS/mL, 10^−15M a-MSH or a-MSH analogue • PBMC's, 10 ng LPS/mL, 10^−13M a-MSH or a-MSH analogue • PBMC's, 10 ng LPS/mL, 10^−11M a-MSH or a-MSH analogue • PBMC's, 10 ng LPS/mL, 10^−9M a-MSH or a-MSH analogue • PBMC's, 10 ng LPS/mL, 10^−7M a-MSH or a-MSH analogue
All samples are diluted from an initial stock solution between 1.4×10^−4M and 1.8×10^−3M. All solutions are handled in BSA coated vials in order to protect against binding of the compound to the surface of the vials.
Data is presented as mean±SE. The effect of test compounds on LPS induced TNF-a liberation is expressed as percentage of the TNF-a accumulation in the LPS-vehicle group. All comparisons are analysed with Student's unpaired t-test. Differences are considered significant at probability levels (p) of 0.05.

Substance | reduction of TNF-a accumulation during iv infusion of LPS [1] | inhibitory effect on plasma TNF-a compared to native a-MSH ([1]; iv LPS infusion) | dose at which the maximal inhibitory effect on TNF-a is achieved ([1]; iv LPS infusion) [μg/kg body weight] | inhibitory effect on plasma TNF-a compared to native a-MSH ([1]; iv LPS infusion, listed as SEQ ID NO: 2*) | reduction of TNF-a accumulation during iv infusion of LPS ([1]; listed as SEQ ID NO: 2*) | dose dependent reduction of LPS induced TNF-a accumulation [2] | inhibitory effect on TNF-a accumulation compared to native a-MSH [2] | inhibitory effect on plasma TNF-a compared to native a-MSH ([1]; iv LPS infusion, listed as SEQ ID NO: 17*) | reduction of TNF-a accumulation during iv infusion of LPS ([1]; listed as SEQ ID NO: 17*) | TNF-a concentration in plasma, % of the maximal response (LPS-Vehicle) ([1]; iv LPS infusion, 200 μg/kg body weight iv, 120 minutes after initiation of LPS infusion) [%] | inhibitory effect on plasma TNF-a compared to native a-MSH ([1]; iv LPS infusion, listed as SEQ ID NO: 13*) | reduction of TNF-a accumulation during iv infusion of LPS ([1]; listed as SEQ ID NO: 13*) | inhibitory effect on plasma TNF-a compared to native a-MSH ([1]; iv LPS infusion, listed as SEQ ID NO: 3*) | reduction of TNF-a accumulation during iv infusion of LPS ([1]; listed as SEQ ID NO: 3*)
Ac-Glu-Glu-Glu-Glu-Glu-Glu-Ser-Tyr-Ser-Met-Glu-His-Phe-Arg-Trp-Gly-Lys-Pro-Val-NH2 (Ac-EEEEEESYSMEHFRWGKPV-NH2) [a-MSH analogue #6] | reduce TNF-a accumulation | markedly more pronounced | 200 | higher degree | significantly inhibit | dose dependently reduce | markedly more pronounced | – | – | – | – | – | – | –
Ac-Lys-Lys-Lys-Lys-Lys-Lys-Ser-Ser-Ile-Ile-Ser-His-(D-Phe)-Arg-Trp-Gly-Lys-Pro-Val-NH2 (KKKKKKSSIISHFRWGKPV; HELM PEPTIDE1{[ac].K.K.K.K.K.K.S.S.I.I.S.H.[dF].R.W.G.K.P.V.[am]}$$$$V2.0; SMILES CC[C@H](C)[C@H](NC(=O)[C@H](CO)NC(=O)[C@H](CO)NC(=O)[C@H](CCCCN)NC(=O)[C@H](CCCCN)NC(=O)[C@H](CCCCN)NC(=O)[C@H](CCCCN)NC(=O)[C@H](CCCCN)NC(=O)[C@H](CCCCN)NC(C)=O)C(=O)N[C@H](C(=O)N[C@@H](CO)C(=O)N[C@@H](Cc1c[nH]cn1)C(=O)N[C@H](Cc1ccccc1)C(=O)N[C@@H](CCCNC(=N)N)C(=O)N[C@@H](Cc1c[nH]c2ccccc12)C(=O)NCC(=O)N[C@@H](CCCCN)C(=O)N1CCC[C@H]1C(=O)N[C@H](C(N)=O)C(C)C)[C@@H](C)CC) [a-MSH analogue #5] | reduce TNF-a accumulation | markedly more pronounced | 200 | – | – | dose dependently reduce | markedly more pronounced | higher degree | significantly inhibit | – | – | – | – | –
Ac-Lys-Lys-Lys-Lys-Lys-Lys-Ser-Ser-Ile-Ile-Ser-His-Phe-Arg-Trp-Gly-Lys-Pro-Val-NH2 (Ac-KKKKKKSSIISHFRWGKPV-NH2) [a-MSH analogue #4] | reduce TNF-a accumulation | markedly more pronounced | 200 | – | – | dose dependently reduce | markedly more pronounced | – | – | 12±2 | higher degree | significantly inhibit | – | –
Ac-Lys-Lys-Lys-Lys-Lys-Lys-Ser-Tyr-Ser-Met-Glu-His-Phe-Arg-Trp-Gly-Lys-Pro-(D-Val)-NH2 (KKKKKKSYSMEHFRWGKPV; HELM PEPTIDE1{[ac].K.K.K.K.K.K.S.Y.S.M.E.H.F.R.W.G.K.P.[dV].[am]}$$$$V2.0; SMILES CSCC[C@H](NC(=O)[C@H](CO)NC(=O)[C@H](Cc1ccc(O)cc1)NC(=O)[C@H](CO)NC(=O)[C@H](CCCCN)NC(=O)[C@H](CCCCN)NC(=O)[C@H](CCCCN)NC(=O)[C@H](CCCCN)NC(=O)[C@H](CCCCN)NC(=O)[C@H](CCCCN)NC(C)=O)C(=O)N[C@@H](CCC(=O)O)C(=O)N[C@@H](Cc1c[nH]cn1)C(=O)N[C@@H](Cc1ccccc1)C(=O)N[C@@H](CCCNC(=N)N)C(=O)N[C@@H](Cc1c[nH]c2ccccc12)C(=O)NCC(=O)N[C@@H](CCCCN)C(=O)N1CCC[C@H]1C(=O)N[C@@H](C(N)=O)C(C)C) [a-MSH analogue #7] | reduce TNF-α accumulation | markedly more pronounced | 200 | – | – | dose dependently reduce | markedly more pronounced | – | – | – | – | – | higher degree | significantly inhibit

Source: patent US8466104B2, “Therapeutically active alpha MSH analogues” (AbbVie Inc., priority 2005, dated 2013)
